How the values were obtained:
Format in all cases: physicochemical
[1] = Stability of DBNPA in various solvents, stored at 60° C., HPLC; conditions: for % DBNPA retained: 2.0 g DBNPA + 8.0 g solvent
[2] = Stability of CMIT and DBNPA mixtures in GTA, stored at 50° C., HPLC; conditions: […]% CMIT/MIT mixture
Experimental: Surfactants were TweenTM 20, TritonTM DF-12 or TritonTM CF-10. The compositions were stored at 50° C. for 4 weeks and the concentrations of active ingredients ([…]) in the compositions were determined by HPLC at the indicated time intervals.

[3] = Stability of DCOIT and DBNPA mixtures in GTA, stored at 40° C., HPLC; conditions: 4% DCOIT
Experimental: […] […] Surfactants were TweenTM 20, TritonTM DF-12 or TritonTM CF-10. These compositions were stored at 40° C. for 6 weeks and the concentrations of active ingredients ([…]) in the compositions were determined by HPLC at the indicated time intervals.

[4] = Freeze/thaw stability of DCOIT/DBNPA/surfactant/GTA compositions, HPLC; conditions: for % DBNPA retained after Freezing and Thawing: thawed at 25° C. 5 hours, three times
Experimental: Samples were prepared to test the freeze/thaw stability of compositions of the present invention. The freeze/thaw test was conducted for compositions of […], surfactant and GTA prepared in Example 4. Samples (20 g each) were stored at -10° C. or -25° C. for 19 hours to be frozen; samples were then stored at 25° C. for 5 hours to be thawed. This sequence was repeated three times. Then the concentrations of active ingredients ([…]) in the compositions were determined by HPLC.

- % retained ([1]; after 4 weeks in glycol, amide, ether and ketone solvents): less than 50%
- % DBNPA retained ([1]; solvent 62% dipropylene glycol in water (comparative), 1 week): 95%
- % DBNPA retained ([1]; solvent 62% dipropylene glycol in water (comparative), 4 weeks): 20%
- % DBNPA retained ([1]; solvent 75% dipropylene glycol in water (comparative), 1 week): 79%
- % DBNPA retained ([1]; solvent 86% dipropylene glycol in water (comparative), 1 week): 49%
- % DBNPA retained ([1]; solvent GTA, 1 week): 92%
- % DBNPA retained ([1]; solvent GTA, 2 weeks): 100%
- % DBNPA retained ([1]; solvent GTA, 3 weeks): 100%
- % DBNPA retained ([1]; solvent GTA, 4 weeks): 100%
- % DBNPA retained ([1]; solvent PGMEA (comparative), 1 week): 80%
- % DBNPA retained ([1]; solvent PGMEA (comparative), 2 weeks): 65%
- % DBNPA retained ([1]; solvent PGMEA (comparative), 3 weeks): 61%
- % DBNPA retained ([1]; solvent PGMEA (comparative), 4 weeks): 45%
- % DBNPA retained ([1]; solvent diethyl phthalate, 1 week): 100%
- % DBNPA retained ([1]; solvent diethyl phthalate, 2 weeks): 98%
- % DBNPA retained ([1]; solvent diethyl phthalate, 3 weeks): 98%
- % DBNPA retained ([1]; solvent diethyl phthalate, 4 weeks): 98%
- % DBNPA retained ([1]; solvent dimethyl formamide (comparative), 1 week): 73%
- % DBNPA retained ([1]; solvent dimethyl formamide (comparative), 2 weeks): 46%
- % DBNPA retained ([1]; solvent ethyl acetate, 1 week): 100%
- % DBNPA retained ([1]; solvent ethyl acetate, 2 weeks): 100%
- % DBNPA retained ([1]; solvent ethyl acetate, 3 weeks): 100%
- % DBNPA retained ([1]; solvent ethyl acetate, 4 weeks): 100%
- % DBNPA retained ([1]; solvent methyl amyl ketone (comparative), 1 week): 9%
- % DBNPA retained ([1]; solvent methyl amyl ketone (comparative), 2 weeks): 12%
- % DBNPA retained ([1]; solvent methyl amyl ketone (comparative), 3 weeks): 0%
- % DBNPA retained ([1]; solvent octyl pyrrolidone (comparative), 1 week): 62%
- % DBNPA retained ([1]; solvent octyl pyrrolidone (comparative), 2 weeks): 50%
- % DBNPA retained ([1]; solvent octyl pyrrolidone (comparative), 3 weeks): 45%
- % DBNPA retained ([1]; solvent triethylene glycol dimethyl ether (comparative), 1 week): 15%
- % DBNPA retained ([1]; solvent triethylene glycol dimethyl ether (comparative), 2 weeks): 0%
- % DBNPA retained ([2]; 5% Triton CF-10, 45% GTA, 0 Time): 100%
- % DBNPA retained ([2]; 5% Triton CF-10, 45% GTA, 1 Week): 97%
- % DBNPA retained ([2]; 5% Triton CF-10, 45% GTA, 2 Weeks): 93%
- % DBNPA retained ([2]; 5% Triton CF-10, 45% GTA, 3 Weeks): 77%
- % DBNPA retained ([2]; 5% Triton CF-10, 45% GTA, 4 Weeks): 69%
- % DBNPA retained ([2]; 5% Triton DF-12, 45% GTA, 0 Time): 100%
- % DBNPA retained ([2]; 5% Triton DF-12, 45% GTA, 1 Week): 98%
- % DBNPA retained ([2]; 5% Triton DF-12, 45% GTA, 2 Weeks): 95%
- % DBNPA retained ([2]; 5% Triton DF-12, 45% GTA, 3 Weeks): 73%
- % DBNPA retained ([2]; 5% Triton DF-12, 45% GTA, 4 Weeks): 68%
- % DBNPA retained ([2]; 5% Tween 20, 45% GTA, 0 Time): 100%
- % DBNPA retained ([2]; 5% Tween 20, 45% GTA, 1 Week): 97%
- % DBNPA retained ([2]; 5% Tween 20, 45% GTA, 2 Weeks): 71%
- % DBNPA retained ([2]; 5% Tween 20, 45% GTA, 3 Weeks): 61%
- % DBNPA retained ([2]; 5% Tween 20, 45% GTA, 4 Weeks): 54%
- % DBNPA retained ([2]; no surfactant, 50% GTA, 0 Time): 100%
- % DBNPA retained ([2]; no surfactant, 50% GTA, 1 Week): 98%
- % DBNPA retained ([2]; no surfactant, 50% GTA, 2 Weeks): 90%
- % DBNPA retained ([2]; no surfactant, 50% GTA, 3 Weeks): 85%
- % DBNPA retained ([2]; no surfactant, 50% GTA, 4 Weeks): 78%
- % DBNPA retained ([3]; 5% Triton CF-10, 66% GTA, 4 Weeks): 93.5%
- % DBNPA retained ([3]; 5% Triton CF-10, 66% GTA, 6 Weeks): 91.2%
- % DBNPA retained ([3]; 5% Triton CF-10, 66% GTA, Time 0): 100.0%
- % DBNPA retained ([3]; 5% Triton DF-12, 66% GTA, 4 Weeks): 92.3%
- % DBNPA retained ([3]; 5% Triton DF-12, 66% GTA, 6 Weeks): 92.0%
- % DBNPA retained ([3]; 5% Triton DF-12, 66% GTA, Time 0): 100.0%
- % DBNPA retained ([3]; 5% Tween 20, 66% GTA, 4 Weeks): 93.3%
- % DBNPA retained ([3]; 5% Tween 20, 66% GTA, 6 Weeks): 92.1%
- % DBNPA retained ([3]; 5% Tween 20, 66% GTA, Time 0): 100.0%
- % DBNPA retained after Freezing and Thawing ([4]; Example 4 composition with Triton CF-10, frozen at −10° C. 19 hours): 98.8%
- % DBNPA retained after Freezing and Thawing ([4]; Example 4 composition with Triton CF-10, frozen at −25° C. 19 hours): 98.8%
- % DBNPA retained after Freezing and Thawing ([4]; Example 4 composition with Triton DF-12, frozen at −10° C. 19 hours): 98.8%
- % DBNPA retained after Freezing and Thawing ([4]; Example 4 composition with Triton DF-12, frozen at −25° C. 19 hours): 99%
- % DBNPA retained after Freezing and Thawing ([4]; Example 4 composition with Tween 20, frozen at −10° C. 19 hours): 99.2%
- % DBNPA retained after Freezing and Thawing ([4]; Example 4 composition with Tween 20, frozen at −25° C. 19 hours): 99.1%
SMILES: N#CC(Br)(Br)C(N)=O [DBNPA, 2,2-dibromo-3-nitrilopropionamide]
- physical stability (appearance) during freeze/thaw cycling ([4]; in GTA solutions in the presence of surfactants): clear solution, no precipitation or phase separation observed
